Columns and labels:
[1] = tested on: gliadin-degrading enzymes of strain WSA-2B
Protocol: (§1) Saliva ion buffer contains 50 mM KCl, 1 mM K2HPO4, 1 mM CaCl2 and 0.1 mM MgCl2 (pH 6.5). Cells were preincubated with the inhibitors for 15 min at room temperature prior to the addition of substrate. Z-YPQ-pNA hydrolysis was followed at 405 nm. Initial velocities of the enzymatic reaction are plotted.
(§2) Inhibitory effects were monitored toward the capacity to hydrolyze Z-YPQ-pNA. The initial rate of substrate proteolysis (Vi) was determined during the first 30 minute incubation time interval.

[2] = tested on: gliadin-degrading enzymes of strain WSA-8
Protocol: as §1, §2

## Cl.NCCc1ccc(S(=O)(=O)F)cc1 [AEBSF, 4-(2-Aminoethyl) benzenesulfonyl fluoride hydrochloride]
[1]
  inhibition of Z-YPQ-pNA hydrolysis (initial rate Vi) in WSA-2B: 97%
[2]
  inhibition of Z-YPQ-pNA hydrolysis (initial rate Vi) in WSA-8: 78%
